According to ChEMBL document CHEMBL3507680, “University of Dundee, Gates Library screen for HepG2 cell viability”:

Assay: Human HepG2 cell viability assay in 384 well format
Format: toxicity, cell-based
Parameters: dose 125 nL, time 70.5 hour; concentration not given beside the values
Details: HepG2 cells, read-out: Inhibition

| SMILES | cytotoxicity at 70.5 h [%] |
| --- | --- |
| CCC[C@H]1CN(S(C)(=O)=O)C[C@@H]1NC(=O)CCOCC | -2.88 |
| CN1CCCN(c2nc(C3CCCC3)nc3c2cnn3C)CC1 | 14.5 |
| CC(Nc1nccc(CCC(F)(F)F)n1)c1nc(-c2ccncc2)no1 (configuration not stated) | -13.3 |
| CN1C(=O)C2(CCCN(C(=O)c3ccc(=O)n(C)n3)C2)c2ccccc21 (configuration not stated) | 0.808 |
| CC(=O)N1CCCC(C(=O)N2Cc3nc(C)n(C)c(=O)c3C2)C1 (configuration not stated) | -3.08 |
| Cn1cc(CN2CCC[C@]3(C(=O)O)CN(c4cnccn4)CC[C@@H]23)cn1 | -2.41 |
| CN(Cc1cccc(-n2cccn2)c1)Cc1cccs1 | -11 |
| COCc1c(C(=O)N2CCCC(C(=O)c3nccn3C)C2)noc1C (configuration not stated) | -1.47 |
| CCc1nc(C)sc1CNC1CCN(Cc2ccccc2)C1 (configuration not stated) | 8.22 |
| CC[C@H]1CN(C(=O)c2cnc(N3CCN(C)CC3)nc2C)CC[C@@]1(C)O | -7.86 |
| COc1ccc(C(=O)C2CCCN(Cc3ccncc3)C2)cc1OC (configuration not stated) | -3.65 |
| Cc1nnsc1C(=O)N1CCN(CC2CC2)[C@@H]2CS(=O)(=O)C[C@@H]21 | -13.8 |
| O=C(NC1CC1)C1CNCCN1C(=O)COc1ccc2c(c1)OCO2 (configuration not stated) | -5.08 |
| CN(CCCc1cnn(C)c1)C(=O)C1CCN(C(=O)C2CCC2)CC1 | -10.7 |
| CCC(CC)NCC(C)Oc1cccnc1 (configuration not stated) | -2.86 |
| CN1CC=C(CCN(C)C(=O)CCc2ccccc2)CC1 | -6.34 |
| Cc1cccc(SC2CCN(C(=O)CCCS(N)(=O)=O)CC2)c1 | -6.67 |
| Cc1cncc(C(=O)N2CCN(c3cnn(C)c(=O)c3)CC2)c1 | -6.5 |
| CC1=C(CCN2CCCC(O)C2)C(C)(C)CCC1 (configuration not stated) | 18.9 |
| CSc1cccc(CN2CCn3nc(CNC(C)=O)cc3C2)c1 | 5.2 |
| COc1c(F)cc(F)cc1-c1nc2c([nH]1)CCNC2 | 14.9 |
| Cc1ccc2occ(CN3CCN(c4ncccn4)CC3)c(=O)c2c1 | 29.4 |
| N[C@@H]1CC[C@@H](NC(=O)c2ccccc2OC(F)(F)C(F)F)C1 | 16 |

| SMILES | cytotoxicity at 70.5 h [%] |
| --- | --- |
| CC(C)=CCN1C[C@@H](C(=O)O)C[C@H](C(=O)Nc2ccc(C)nc2)C1 | -8.07 |
| Cc1ccc(S(=O)(=O)N2C[C@H](C3CC3)[C@@H](N)C2)cc1F | -3.15 |
| O=C(CC1COCCN1)NCCc1noc(-c2ccccc2)n1 (configuration not stated) | -2.33 |
| Cc1cccc(C)c1NC(=O)NCC1CCCN(C2CCOCC2)C1 (configuration not stated) | -8.66 |
| CCc1nnc(N[C@H](C)c2cccc(OC)c2)o1 | -20.2 |
| CCCc1nc(C(=O)N2CCN(S(=O)(=O)CC)CC2)cs1 | 10.2 |
| O=C(COCc1ccccc1)N1CCCn2cncc2C1 | -4.83 |
| CCN1CCC(NN2CCN(C)CC2)CC1 | -4.47 |
| O=C(O)[C@@]12CN(c3cnccn3)C[C@@H]1CN(C1CCCC1)C2 | -7.64 |
| COc1coc(CN2CCCC(CCc3ccccc3C)C2)cc1=O (configuration not stated) | 2.52 |
| CCOc1ccc(C(=O)N2Cc3cnc(CC)nc3C2)o1 | -3.48 |
| CCCN1CCC(NN2CCN(C)CC2)CC1 | -6.76 |
| CCCN1CCC(Nc2cc(-c3ccccc3)ccc2OC)CC1 | 0.639 |
| CCc1nc(N2CCN(c3ncccc3C#N)CC2)c2cnn(C)c2n1 | 22 |
| CNc1ncc(CN(C)c2nccc(CCC(F)(F)F)n2)cn1 | -2.35 |
| Cc1nc(CN(C)Cc2nc(-c3ccccc3)no2)co1 | -1.63 |
| CCn1c(CC2CCN(C(=O)C3CCOC3)CC2)nn(C)c1=O (configuration not stated) | 32.2 |
| COc1cc(F)ccc1C(C(=O)O)N(C)CCN1CCOCC1 (configuration not stated) | 15.1 |
| COc1ccccc1-n1cc(C(=O)NCCn2nc(C)nc2C)cn1 | -9.92 |
| CC(Cn1cncn1)NCc1n[nH]c2c1CCCCC2 (configuration not stated) | -10.2 |
| CN(C)C(C(=O)N1CCC(c2ncc[nH]2)CC1)c1ccc2c(c1)OCO2 (configuration not stated) | -5.4 |
| COc1ccccc1N1CCN(C(=O)Cn2nc(C)cc2C)CC1(C)C | -14.1 |
| COc1ccc(F)c(CN2CCCC3(CCN(C4CCOCC4)C3)C2)c1 (configuration not stated) | -4.15 |

| SMILES | cytotoxicity at 70.5 h [%] |
| --- | --- |
| O=C1CCC(C(=O)N(Cc2ccsc2)CC2CCCO2)=NN1 (configuration not stated) | -0.382 |
| CC(C)Cc1noc(CN(C)C(=O)CCNC(=O)c2ccccc2F)n1 | -8.23 |
| Cc1csc(CNc2ccc(-c3nc(C4CC4)no3)cn2)n1 | -5.44 |
| O=S(=O)(c1c(Cl)nc2sccn12)N1CCC2(CCNCC2)C1 | -6.41 |
| COCC[C@]1(O)CCN(CC(=O)NCc2ccccn2)C[C@H]1C | 5.51 |
| C=Cc1cccc(CN2CCCn3nc(CNS(C)(=O)=O)cc3C2)c1 | -3.84 |
| O=C(Nc1ccc2c(c1)OCO2)N1CCN(CCc2ccccc2)CC1 | -6.84 |
| c1cc2ccc(N3CCN(Cc4ccc5c(c4)OCO5)CC3)nc2[nH]1 | -4.53 |
| Cc1c(CN(C)c2cc(C3CCCNC3)ncn2)[nH]c2ccccc12 (configuration not stated) | -14.2 |
| CCC(C)N(Cc1cccnc1)C(=O)c1ccc(F)c(O)c1 (configuration not stated) | 12.9 |
| O=C(c1cn(CC(=O)N2CCCCCC2)c2ccccc12)C1CC1 | -7.67 |
| CCC[C@@H]1CN(Cc2ccccc2SC)C[C@H]1NC(C)=O | -5.44 |
| COc1cccc(S(=O)(=O)N2CCCCC2CCN2CCOCC2)c1 (configuration not stated) | 24.6 |
| CCN1CC2(CCN(C(=O)C(C)Oc3ccc(F)cc3Cl)CC2)CC1=O (configuration not stated) | 25 |
| CCCc1nc(N2CC[C@@H](c3ccc4ccccc4c3)[C@H](O)C2)no1 | -0.24 |
| CCn1c(CC2CCN(C(=O)C3COCCO3)CC2)nn(C)c1=O (configuration not stated) | 42.7 |
| Cc1cnc(N2CC[C@@]3(O)CCCC[C@H]3C2)nc1-c1ccnn1C | -7.52 |
| O=C(c1ccc(S(=O)(=O)NC2CCC2)cc1)N1CC[C@H]2CNC[C@H]21 | -3.93 |
| Cc1nnsc1C(=O)NCc1cccnc1N1CCCC(O)C1 (configuration not stated) | -15.1 |
| Cc1ccccc1CN(Cc1ccncc1)CC(C)C | -4.55 |
| CC(C1CCN(Cc2ccc(N(C)C)nc2)CC1)N(C)C (configuration not stated) | -2.39 |
| COC1CCN(S(=O)(=O)N2CC[C@@](O)(C3CCC3)[C@H](C)C2)CC1 | -11.9 |
| CC(C)[C@H]1CN(Cc2ccncc2)C[C@@H]1NC(=O)C1(C#N)CCOCC1 | -1.7 |

| SMILES | cytotoxicity at 70.5 h [%] |
| --- | --- |
| CNc1ccc(C(=O)N(C)Cc2ccc3ccccc3n2)cn1 | -8.44 |
| COCCN(C)Cc1cc(Cl)ccc1OCC(O)CN1CCCCCC1 (configuration not stated) | -11.6 |
| Cc1cc(C)cc(CCC(=O)N(C)CCc2cn[nH]c2)c1 | -14.2 |
| O=C(O)c1cccnc1CN1CCOc2ccccc2C1 | -9.48 |
| CCC(=O)N1CCC(n2cc(C(C)(C)O)nn2)CC1 | -6.93 |
| COC(=O)[C@@H]1C[C@@H](NC(=O)CN2C(=O)N(C)Cc3ccccc32)CN1C | -3.77 |
| CCn1ncnc1C1CC(=O)NCc2nc(N)sc21 (configuration not stated) | 27.6 |
| CCc1cnc(C)nc1NCCC(=O)N1CCC(C)CC1 | -0.743 |
| CCCN1C[C@H]2CC[C@@H]1CN(Cc1cccc(-n3cccn3)c1)C2 | -0.983 |
| COc1ccccc1N1CCC(N2CCOC(C(F)(F)F)C2)CC1 (configuration not stated) | -3.26 |
| O=C(C1CCOCC1)N1CCC(OCc2cccnc2)CC1 | -12 |
| NC1CCCc2c1cnn2-c1cc(F)cc(F)c1 (configuration not stated) | -4.65 |
| O=C1CC2(CCN(CC3CC3)CC2)CN1Cc1cc(F)cc(F)c1 | -2.81 |
| CCOc1ccnc(NCCc2nc(C)cc(=O)[nH]2)n1 | -2.38 |
| O=C(c1cnc(Cc2c(Cl)cccc2Cl)nc1O)N1CCNCC1 | 8.34 |
| COCCN(Cc1ccccn1)C(=O)C1CCCCCN1C (configuration not stated) | -9.93 |
| Cc1cc(C)c2nc(CN(C)C(C)c3ccncn3)cc(O)c2c1 (configuration not stated) | -4.38 |
| CCN1CC2(CCC1=O)CCN(CCOc1ccc(F)cc1)CC2 | -13 |
| Cc1ccc(C#N)c(N2CCC3(CCC(=O)N(CC(N)=O)C3)CC2)n1 | -9.24 |
| O=C(O)C1(Cc2ccccc2Cl)CCN(c2ncnc3[nH]ccc23)CC1 | 10.8 |
| CSc1ncc(C(=O)N2C[C@H]3CC[C@@H]2CN(S(=O)(=O)N(C)C)C3)cn1 | -1.22 |
| CC(C)(N)c1cn(C2CCN(C3CCSCC3)CC2)nn1 | -6.81 |
| COCc1cc(N2CCN(Cc3ccncc3)CC2)n2nccc2n1 | -1.74 |

| SMILES | cytotoxicity at 70.5 h [%] |
| --- | --- |
| COc1ccc2c(c1)CCN(Cc1cscn1)CC2 | -0.57 |
| CCC(Cn1ccnc1)n1cnc2scc(C)c2c1=O (configuration not stated) | 13.9 |
| Cc1cc(N2CCC3(CC2)C(C(=O)O)CC(=O)N3C)nc2ccccc12 (configuration not stated) | -6.81 |
| Cn1c(CN2CCOCC2)nnc1C1CCCN(CC(N)=O)C1 (configuration not stated) | 3.41 |
| COCC(O)CNC(=O)c1coc(COc2ccc3sc(C)nc3c2)n1 (configuration not stated) | -9.49 |
| CCN(CC)S(=O)(=O)N1CCCC(c2cccc(C(=O)O)c2)C1 (configuration not stated) | -6.99 |
| CCOc1ccc(-c2ccnc(CC)n2)cc1C(=O)O | -7.1 |
| O=C(Cc1ccccn1)N1C[C@@H]2CC[C@H](C1)N(Cc1ccccc1)C2=O | 6.93 |
| CCNC(=O)c1ccnc(NCC2COc3cc(OC)ccc3C2)c1 (configuration not stated) | -3.26 |
| CC(C)CN1CCC(c2nc3c([nH]2)CC(C)(C)CNC3=O)C1 (configuration not stated) | -9.67 |
| COc1ccc(C(=O)N2C[C@@H](CN3CCOCC3)[C@@H](CO)C2)c(C)c1 | -7.76 |
| Cc1ccc(CN2CCC(c3nnc(CN4CCCCC4)n3C)CC2)o1 | -5.72 |
| COc1ccccc1OCc1cc(C(=O)N2C[C@H](O)[C@@H](N(C)C)C2)n[nH]1 | -4.57 |
| O=C(NC(CO)CO)c1coc(COc2cccc(F)c2)n1 | -13 |
| COCCN1CCN(Cc2ccc(F)c(C)c2)[C@H]2CS(=O)(=O)C[C@H]21 | 17.8 |
| O=C(Cc1cccc(Cl)c1)N[C@@H]1CCNC[C@H]1O | -3.16 |
| Cc1ccccc1CSc1nc(N)cc(N2CCOC(C(N)=O)C2)n1 (configuration not stated) | 1.56 |
| COCCCn1ccnc1-c1cnc(OC)nc1 | -9.97 |
| COc1ccc(C(=O)C2CCCN(CCCn3cccn3)C2)c(OC)c1 (configuration not stated) | 20.9 |
| CCN1CC(C(=O)N2CCC(Oc3ccccc3C)CC2)CC1=O (configuration not stated) | -7.02 |
